Reference: ChEMBL document CHEMBL1201862, “PubChem BioAssay data set” (2004)
Counter-ions that a name gives are not always drawn.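 Five compound concentrations were applied to cells in 96-well plates for 48 hours; endpoints were derived by simple linear interpolation of the resulting dose-response curve. Abbreviation: GI50, concentration required for 50% inhibition of growth.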 The source made the active and inactive calls. No stated cut-off is given here; in the data, active = GI50 up to about 1.1 µM and inactive = higher. Where a SMILES comes first, the peptide text is derived from it.

Columns and labels:
Assay in all cases: growth of human tumour cells (NCI), 48 h
786-0 = system: 786-0
CAKI-1 = system: CAKI-1
CCRF-CEM = system: CCRF-CEM
EKVX = system: EKVX
Hs-578T = system: Hs-578T
MCF7 = system: MCF7
MDA-MB-435 = system: MDA-MB-435
MOLT-4 = system: MOLT-4
Malme-3M = system: Malme-3M
NCI-H226 = system: NCI-H226
NCI-H23 = system: NCI-H23
OVCAR-5 = system: OVCAR-5
SF-268 = system: SF-268
SK-MEL-5 = system: SK-MEL-5
SK-OV-3 = system: SK-OV-3
SNB-19 = system: SNB-19
SNB-75 = system: SNB-75
UACC-62 = system: UACC-62
UO-31 = system: UO-31
DMS-273 = system: DMS-273

Measured: GI50

Sc1ccc2ccccc2c1CNCc1ccccc1
inactive: 786-0 9.75 µM | CAKI-1 15.7 µM | CCRF-CEM 3.72 µM | EKVX 22.9 µM | Hs-578T 22.7 µM | MCF7 13.7 µM | MDA-MB-435 12.3 µM | MOLT-4 2.25 µM | Malme-3M 21.8 µM | NCI-H226 3.08 µM | NCI-H23 14.5 µM | OVCAR-5 13.1 µM | SF-268 8.47 µM | SK-MEL-5 9.46 µM | SK-OV-3 11.8 µM | SNB-19 24.3 µM | SNB-75 15.7 µM | UACC-62 14.3 µM | UO-31 11.7 µM

COc1ccc(N/N=C(\CCN(C)C)c2ccccc2)cc1
inactive: 786-0 3.4 µM | CCRF-CEM 1.41 µM | DMS-273 3 µM | EKVX 2.2 µM | MOLT-4 3.39 µM | Malme-3M 11.7 µM | NCI-H23 4.43 µM | OVCAR-5 9.57 µM | SF-268 1.62 µM | SK-MEL-5 6.37 µM | SK-OV-3 3.41 µM | SNB-19 3.01 µM | SNB-75 8.04 µM | UACC-62 1.9 µM | UO-31 1.37 µM

COc1ccc2c(c1)CC[C@@H]1C2CC[C@]2(C)C(=O)N(C)C(=O)CC12 (stereo partly specified)
inactive: 786-0 50.1 µM | CAKI-1 > 100 µM | CCRF-CEM > 100 µM | EKVX > 100 µM | Hs-578T 42 µM | MCF7 > 100 µM | MDA-MB-435 > 100 µM | MOLT-4 > 100 µM | Malme-3M > 100 µM | NCI-H226 > 100 µM | NCI-H23 > 100 µM | OVCAR-5 > 100 µM | SF-268 > 100 µM | SK-MEL-5 > 100 µM | SK-OV-3 > 100 µM | SNB-19 > 100 µM | SNB-75 52.5 µM | UACC-62 > 100 µM | UO-31 > 100 µM

CCOC(=O)C1(Br)C(c2ccccc2)NC(=O)N(C2OC(COC(=O)c3ccccc3)C(OC(=O)c3ccccc3)C2OC(=O)c2ccccc2)C1(C)Br (stereo unspecified)
inactive: 786-0 12.9 µM | CAKI-1 35.6 µM | CCRF-CEM 3.15 µM | DMS-273 33.5 µM | EKVX 36.7 µM | MOLT-4 18.2 µM | Malme-3M 23.8 µM | NCI-H23 29.4 µM | SF-268 > 55.5 µM | SK-MEL-5 15.2 µM | SK-OV-3 42.9 µM | SNB-19 39.9 µM | SNB-75 13.3 µM | UACC-62 10.6 µM | UO-31 25.9 µM

O=C1c2cnccc2Cc2cccc3c2N1c1ccccc1S3
inactive: 786-0 28.1 µM | CAKI-1 2.88 µM | CCRF-CEM 27.5 µM | DMS-273 22.9 µM | MOLT-4 28.3 µM | Malme-3M 24.7 µM | NCI-H23 20.1 µM | SF-268 29 µM | SK-MEL-5 17.9 µM | SNB-19 30.9 µM | SNB-75 12.6 µM | UACC-62 18 µM

CC(=O)c1c(C)cn(S(=O)(=O)NC(=O)Nc2nncs2)c1C
inactive: 786-0 > 100 µM | CAKI-1 > 100 µM | CCRF-CEM 23.3 µM | EKVX > 100 µM | Hs-578T > 100 µM | MCF7 > 100 µM | MDA-MB-435 > 100 µM | MOLT-4 > 100 µM | Malme-3M > 100 µM | NCI-H226 49.2 µM | NCI-H23 > 100 µM | OVCAR-5 > 100 µM | SF-268 > 100 µM | SK-MEL-5 > 100 µM | SK-OV-3 > 100 µM | SNB-19 > 100 µM | SNB-75 > 100 µM | UACC-62 > 100 µM | UO-31 68.9 µM

COCN(C)c1nc(N(C)C)nc(N(C)C)n1
inactive: 786-0 > 100 µM | CAKI-1 > 100 µM | CCRF-CEM > 100 µM | DMS-273 > 100 µM | EKVX > 100 µM | MOLT-4 > 100 µM | Malme-3M > 100 µM | NCI-H23 > 100 µM | OVCAR-5 > 100 µM | SF-268 > 100 µM | SK-MEL-5 > 100 µM | SK-OV-3 > 100 µM | SNB-19 > 100 µM | SNB-75 > 100 µM | UACC-62 > 100 µM | UO-31 > 100 µM

O=c1c(Cl)cc2nc3ccccc3sc-2c1Cl
inactive: 786-0 21.2 µM | CAKI-1 22.1 µM | CCRF-CEM 4.67 µM | EKVX 3.22 µM | Hs-578T 22 µM | MCF7 14.4 µM | MDA-MB-435 2.82 µM | MOLT-4 3.61 µM | Malme-3M 10 µM | NCI-H226 16.5 µM | NCI-H23 11 µM | OVCAR-5 24.7 µM | SF-268 14.9 µM | SK-MEL-5 2.92 µM | SK-OV-3 21 µM | SNB-19 17 µM | SNB-75 16.2 µM | UACC-62 11.5 µM | UO-31 15.3 µM

O=C(NCCc1ccccc1)c1cc(/C=C/c2cc(O)ccc2O)ccc1O
inactive: 786-0 2.38 µM | CAKI-1 2.94 µM | CCRF-CEM 2.11 µM | EKVX 2.91 µM | Hs-578T 5.2 µM | MCF7 2.62 µM | MDA-MB-435 3.96 µM | MOLT-4 2.52 µM | Malme-3M 2.22 µM | NCI-H226 9.66 µM | NCI-H23 4.95 µM | OVCAR-5 8.69 µM | SF-268 3.19 µM | SK-MEL-5 2.74 µM | SK-OV-3 13 µM | SNB-19 6.71 µM | SNB-75 5.57 µM | UACC-62 2.03 µM | UO-31 1.7 µM

CC(=O)NC(CS)C(=O)NC(CO)C(=O)NC(CO)C(=O)NC(Cc1c[nH]c2ccccc12)C(=O)N1CCCC1C(=O)NC(CO)C(=O)NC(Cc1c[nH]c2ccccc12)C(=O)NC(Cc1c[nH]cn1)C(=O)NC(CO)C(=O)NC(Cc1c[nH]c2ccccc12)C(=O)NCC(=O)NCC(=O)NC(CC(=O)O)C(=O)NC(CCC(N)=O)C(=O)NC(CCCCN)C(=O)NC(Cc1ccccc1)C(=O)NC(CCCNC(=N)N)C(=O)NC(CCCCN)C(N)=O (stereo unspecified) (Ac-CSSWPSWHSWGGDQKFRK-NH2; configuration not given here)
inactive: 786-0 > 25 µM | CAKI-1 > 25 µM | CCRF-CEM > 25 µM | EKVX > 25 µM | Hs-578T > 25 µM | MCF7 > 25 µM | MDA-MB-435 > 25 µM | MOLT-4 > 25 µM | Malme-3M > 25 µM | NCI-H226 > 25 µM | NCI-H23 > 25 µM | OVCAR-5 > 25 µM | SF-268 > 25 µM | SK-MEL-5 > 25 µM | SK-OV-3 > 25 µM | SNB-19 > 25 µM | SNB-75 > 25 µM | UACC-62 > 25 µM | UO-31 > 25 µM

CN1[C@@H]2CC[C@H]1C[C@@H](OC(c1ccccc1)c1ccccc1)C2 [BENZTROPINE MESYLATE]
inactive: 786-0 14 µM | CAKI-1 23.6 µM | CCRF-CEM 14 µM | EKVX 31.6 µM | Hs-578T 13.1 µM | MCF7 13.9 µM | MDA-MB-435 13.9 µM | MOLT-4 21 µM | Malme-3M 14.9 µM | NCI-H226 27.5 µM | NCI-H23 27.3 µM | OVCAR-5 18.4 µM | SF-268 18.5 µM | SK-MEL-5 15.6 µM | SK-OV-3 17.9 µM | SNB-19 22 µM | SNB-75 17.3 µM | UACC-62 16.8 µM | UO-31 15.3 µM
